Measurements as given in patent US7897602B2, “Indolinone compounds as kinase inhibitors” (Development Center for Biotechnology, priority 2009, dated 2011).

What was measured:
Type in all cases: biochemical
PDGFR-β kinase = target: T1, PDGFR-β kinase (Homo sapiens, UniProt P09619); test: PDGFR-β kinase assay (33P incorporation into Poly(Glu-Tyr)); details: 500 nM test compound
T1 construct: recombinant N-terminal 6×His-tagged PDGFR-β kinase domain construct expressed by baculovirus; 6xHis (N); made in house
How it was run: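 His-tagged PDGFR-β kinase domain (55 ng) with Poly(Glu-Tyr) 4:1, 30 μM ATP plus [33P]-γ-ATP, pH 7.0 MnCl2 buffer, and 500 nM compound for 30 min at 30° C. Filter-bound radioactivity counted; inhibition computed relative to DMSO control.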

Aurora A kinase = target: T2, Aurora A kinase (Homo sapiens, UniProt O14965); test: Aurora A kinase assay ([γ-33P]ATP, CHOCKtide substrate); details: for inhibition at 1 µM: 1.0 μM test compound
T2 construct: purchased Upstate
T2 sequence (O14965 1-403): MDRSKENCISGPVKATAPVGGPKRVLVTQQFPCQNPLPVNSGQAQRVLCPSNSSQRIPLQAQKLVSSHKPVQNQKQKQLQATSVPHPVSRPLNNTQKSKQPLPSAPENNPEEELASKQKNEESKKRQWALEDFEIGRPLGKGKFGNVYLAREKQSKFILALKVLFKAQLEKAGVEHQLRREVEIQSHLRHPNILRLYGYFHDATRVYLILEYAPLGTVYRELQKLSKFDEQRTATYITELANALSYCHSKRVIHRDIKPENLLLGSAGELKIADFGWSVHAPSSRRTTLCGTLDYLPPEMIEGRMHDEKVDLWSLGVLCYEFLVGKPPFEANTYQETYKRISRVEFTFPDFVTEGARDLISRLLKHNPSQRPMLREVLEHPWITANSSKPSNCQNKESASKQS
How it was run: (§1)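 Recombinant Aurora A (1 ng) or Aurora B (2.5 ng) incubated with test compound, CHOCKtide (1 μg) and [γ-33P]ATP/ATP at 10 μM (Aurora A) or 40 μM (Aurora B), 30 min at 33 °C. Stopped with phosphoric acid; filter-bound 33P counted; IC50 = half-maximal inhibition.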

c-Met kinase = target: T3, c-Met kinase (Homo sapiens, UniProt P08581); test: c-Met kinase assay (33P incorporation into Poly(Glu-Tyr)); details: 500 nM test compound
T3 construct: recombinant N-terminal 6×His-tagged c-Met kinase domain construct expressed from baculovirus; 6xHis (N); made in house
How it was run: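 Recombinant N-terminal 6×His-tagged c-Met kinase domain (baculovirus-expressed, 5 ng) acted on Poly(Glu-Tyr) 4:1 with 100 μM ATP plus [33P]-γ-ATP in MOPS pH 7.0 buffer, 30 min at 30° C. Compound was at 500 nM. Filter-retained radioactivity was compared with the DMSO control to give percent inhibition.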

Aurora B kinase = target: T4, Aurora B kinase (Homo sapiens, UniProt Q96GD4); test: Aurora B kinase assay ([γ-33P]ATP, CHOCKtide substrate); details: for inhibition at 1 µM: 1.0 μM test compound
T4 construct: purchased Cell signaling
How it was run: as §1

T4 sequence (Q96GD4 whole entry): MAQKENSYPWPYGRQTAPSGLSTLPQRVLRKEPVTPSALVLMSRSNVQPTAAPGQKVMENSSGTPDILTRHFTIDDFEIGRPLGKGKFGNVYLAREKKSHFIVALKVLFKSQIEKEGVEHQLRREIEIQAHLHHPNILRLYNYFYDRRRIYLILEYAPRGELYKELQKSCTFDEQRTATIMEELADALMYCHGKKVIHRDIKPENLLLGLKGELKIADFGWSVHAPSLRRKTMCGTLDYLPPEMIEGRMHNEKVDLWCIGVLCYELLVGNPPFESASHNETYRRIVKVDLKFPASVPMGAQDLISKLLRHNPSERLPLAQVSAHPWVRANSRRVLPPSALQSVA
T3 sequence (P08581 1078-1345 limits assumed): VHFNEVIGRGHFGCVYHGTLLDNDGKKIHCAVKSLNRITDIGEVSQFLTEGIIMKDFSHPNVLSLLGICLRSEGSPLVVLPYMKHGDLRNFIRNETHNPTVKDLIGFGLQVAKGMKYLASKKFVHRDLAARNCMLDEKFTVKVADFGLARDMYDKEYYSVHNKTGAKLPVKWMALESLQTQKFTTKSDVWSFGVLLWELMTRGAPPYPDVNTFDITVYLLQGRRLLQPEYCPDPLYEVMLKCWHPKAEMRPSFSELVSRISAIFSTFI
T1 sequence (P09619 600-962 limits assumed): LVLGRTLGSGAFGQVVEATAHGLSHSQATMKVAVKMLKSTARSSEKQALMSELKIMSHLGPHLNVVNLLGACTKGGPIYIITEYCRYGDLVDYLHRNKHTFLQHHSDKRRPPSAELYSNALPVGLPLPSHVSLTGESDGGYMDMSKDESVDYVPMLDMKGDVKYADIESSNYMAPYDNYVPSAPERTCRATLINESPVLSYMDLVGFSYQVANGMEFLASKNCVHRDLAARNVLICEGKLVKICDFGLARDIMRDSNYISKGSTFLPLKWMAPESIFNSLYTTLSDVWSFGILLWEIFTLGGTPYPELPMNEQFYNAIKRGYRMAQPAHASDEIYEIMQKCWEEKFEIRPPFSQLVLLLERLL

SMILES	inhibition at 0.5 µM (PDGFR-β kinase) [%]	inhibition at 1 µM (Aurora A kinase) [%]	inhibition at 0.5 µM (c-Met kinase) [%]	inhibition at 1 µM (Aurora B kinase) [%]	IC50 (Aurora A kinase) [nM]	IC50 (Aurora B kinase) [nM]
CCOC(=O)CCc1c(/C=C2\C(=O)Nc3ccc([N+](=O)[O-])cc32)[nH]c2c1C(=O)CCC2 [DCB-70062, (Z)-5-nitro-3-((3-(3-ethoxy-3-oxopropyl)-4-oxo-4,5,6,7-tetrahydro-1H-indol-2-yl)methylene)indolin-2-one]	67.5	-7.2	34.1	-4.1	–	–
O=C(O)CCc1c(/C=C2\C(=O)Nc3ccc(NS(=O)(=O)c4ccc(F)cc4)cc32)[nH]c2c1C(=O)CCC2 [DCB-70145, (Z)-3-(2-((5-(4-fluorophenylsulfonamido)-2-oxoindolin-3-ylidene)methyl)-4-oxo-4,5,6,7-tetrahydro-1H-indol-3-yl)propanoic acid]	14.5	90.3	12.5	75.2	45.7	449
CCOC(=O)CCc1c(/C=C2\C(=O)Nc3ccc(NS(=O)(=O)c4ccccc4)cc32)[nH]c2c1C(=O)CCCC2 [DCB-70146, (Z)-ethyl 3-(4-oxo-2-((2-oxo-5-(phenylsulfonamido)indolin-3-ylidene)methyl)-1,4,5,6,7,8-hexahydrocyclohepta[b]pyrrol-3-yl)propanoate]	19.7	81.3	20.9	75.1	86.3	439
CCOC(=O)CCc1c(/C=C2\C(=O)Nc3ccc(NC(=O)Nc4ccc(C)cc4)cc32)[nH]c2c1C(=O)CCC2 [DCB-70091, (Z)-5-(3-p-tolylureido)-3-((3-(3-ethoxy-3-oxopropyl)-4-oxo-4,5,6,7-tetrahydro-1H-indol-2-yl)methylene)indolin-2-one]	13	7.6	-0.5	10.8	–	–
COc1cc(-c2ccc3c(c2)NC(=O)/C3=C\c2[nH]c3c(c2CCC(=O)O)C(=O)CCC3)ccc1O [DCB-70082, (Z)-6-(4-hydroxy-3-methoxyphenyl)-3-((3-carboxyethyl-4-oxo-4,5,6,7-tetrahydro-1H-indol-2-yl)methylene)indolin-2-one]	41.4	81.7	27.3	47.1	224	2240
